Earlier results as cited in patent publication US6447820B1, “Pharmaceutical composition for the prevention and treatment of scar tissue” (priority 2001, dated 2002).

Tests used:
[1] = mice
[2] = mice; remark: listed apart in the source
[3] = X-ray irradiated recipient mice
[4] = guinea pigs
[5] = mice; remark: listed apart in the source
[6] = mice; remark: listed apart in the source

## COc1cc2c(cc1O)C[C@H]1c3cc(O)c(OC)cc3CC[N@@+]1(C)C2 [phellodendrine]
[1]
  local GvH reactions: suppress
  local semisyngeneic GvH reactions: suppressed
[2]
  antibody production to SRBC: did not affect
[3]
  systemic allogeneic GvH reactions: suppressed
[4]
  effector phase of tuberculin-induced delayed type hypersensitivity: did not suppress
  induction phase of tuberculin-induced delayed type hypersensitivity: suppressed
[5]
  effector phase of SRBC-induced delayed type hypersensitivity: did not suppress
  induction phase of SRBC-induced delayed type hypersensitivity: suppressed

## CC1(C)O[C@H]2CC(=O)OC[C@]23[C@H]2CC[C@@]4(C)[C@H](c5ccoc5)OC(=O)[C@H]5O[C@]54[C@]2(C)C(=O)C[C@@H]13 [limonin]
[6]
  sleeping time induced by alpha-chloralose-urethane: shorten

## CC1(C)OC(=O)C=C[C@]2(C)[C@H]3CC[C@@]4(C)[C@H](c5ccoc5)OC(=O)[C@H]5O[C@]54[C@]3(C)C(=O)C[C@@H]12 [obacunone]
[6]
  sleeping time induced by alpha-chloralose-urethane: shorten

## COc1ccc2c(c1O)-c1c(O)c(OC)cc3c1[C@H](C2)[N+](C)(C)CC3 [magnoflorine]
[1]
  local GvH reactions: suppress
